Here are results for one molecule from article PMC10262918, “Stapled peptide PROTAC induced significantly greater anti-PD-L1 effects than inhibitor in human cervical cancer cells” (Frontiers in Immunology, 2023).

For this test, the system named is PD-L1 in C33A cells. Briefly: Western blotting of PD-L1 level in C33A cells. In kind it is cell-based, human. The following applies: 4 h treatment, mean of 3 independent experiments, read-out: IC50 of PD-L1 decrease. How it is done: C33A and HeLa cells were plated in 6-well plates and treated with the stapled peptide at the indicated concentrations for the specified time, followed by lysis in RIPA buffer containing protease inhibitor. Protein samples were prepared using a BCA Protein Assay Kit (Beyotime). A total of 50 µg of protein were added per lane, separated by 10% SDS-PAGE, and subsequently transferred onto polyvinylidene fluoride (PVDF) membrane. The membrane was blocked with 5% skimmed milk for 2 h at room temperature. Primary antibodies including anti-PD-L1 (Abcam, ab213524) and anti-GAPDH (Abcam, ab9485) antibodies were diluted in primary antibody dilution buffer (Biosharp) and incubated with PVDF membrane at 4°C overnight. Next, the membrane was incubated with goat anti-mouse/anti-rabbit secondary antibodies (Proteintech, SA00001-1, SA00001-2) at room temperature for 1 h. After washing with TBST thrice for 5 min each, the proteins were detected using enhanced chemiluminescence (ECL) reagents (Vazyme) and a ChemiDoc XRS imaging system (Bio-Rad Laboratories).
On the technique in general: A western blot detects proteins with antibodies after separation by electrophoresis.

SMILES strings stand for the structures.

Consider `Cc1c(COc2ccc(CN3CCCCC3C(=O)O)cc2Br)cccc1-c1ccccc1` (stereo not shown) [BMS-8], for which the IC50 turned out to be 7.79 µM.

What is called IC50 is the concentration that gives 50% inhibition.
